# Read-outs that look alike come from different tables or passages of the source.
# Key:
# Burkholderia glumae = experiment: Material disinfection test; format: cell-based; conditions: 5 minutes
# Pyricularia oryzae = format: cell-based; conditions: 5 minutes
# Erwinia chrysanthemi = experiment: Material disinfection test; format: cell-based; conditions: 5 minutes
# Burkholderia plantarii = experiment: Material disinfection test; format: cell-based; conditions: 5 minutes
# Rhizoctonia solani = experiment: Material disinfection test; format: cell-based; conditions: 5 minutes
# Ralstonia solanacearum = format: cell-based; conditions: 5 minutes
# Botrytis cinerea = experiment: Material disinfection test; format: cell-based; conditions: 5 minutes
# Pythium ultimum = experiment: Material disinfection test; format: cell-based; conditions: 5 minutes
# Fusarium oxysporum = experiment: Material disinfection test; format: cell-based; conditions: 5 minutes
# [1] = tested on: Clavibacter michiganense subsp. Nebraskense (ATCC27822); experiment: Basic test: cutting knife disinfection, ring rot pathogens; format: cell-based; conditions: knife immersed 5 seconds
# [2] = tested on: Erwinia carotovora var. cartovora; experiment: Test using potatoes: blackleg pathogenesis after cutting with disinfected knife; format: in vivo, potatoes Norin No. 1
# [3] = tested on: Erwinia carotovora var. cartovora; experiment: Basic test: cutting knife disinfection, blackleg pathogens; format: cell-based; conditions: knife immersed 5 seconds
# [4] = tested on: bacteria pathogens and filamentous fungi pathogens; format: cell-based
smiles,measurement,setting,value
O=C(O)CC(O)(CC(=O)O)C(=O)O [Citric acid],Average value of viable bacteria counts on all materials examined,Burkholderia glumae; 10 times solution sprayed,2.6 × 10^8 cfu/ml
same,Average value of viable bacteria counts on all materials examined,Burkholderia glumae; 50 times solution sprayed,1.7 × 10^8 cfu/ml
same,average value of viable filamentous fungi counts on all materials examined,Pyricularia oryzae; 50 times solution sprayed,3.2 × 10^4 cfu/ml
same,Average value of viable bacteria counts on all materials examined,Erwinia chrysanthemi; 10 times solution sprayed,1.7 × 10^8 cfu/ml
same,Average value of viable bacteria counts on all materials examined,Erwinia chrysanthemi; 50 times solution sprayed,1.9 × 10^8 cfu/ml
same,Average value of viable bacteria counts on all materials examined,Burkholderia plantarii; 10 times solution sprayed,3.8 × 10^7 cfu/ml
same,Average value of viable bacteria counts on all materials examined,Burkholderia plantarii; 50 times solution sprayed,1.0 × 10^7 cfu/ml
same,average value of viable filamentous fungi counts on all materials examined,Rhizoctonia solani; 10 times solution sprayed,2.0 × 10^5 cfu/ml
same,average value of viable filamentous fungi counts on all materials examined,Rhizoctonia solani; 50 times solution sprayed,1.7 × 10^5 cfu/ml
same,Average value of viable bacteria counts on all materials examined,Ralstonia solanacearum; 10 times solution sprayed,1.1 × 10^9 cfu/ml
same,Average value of viable bacteria counts on all materials examined,Ralstonia solanacearum; 50 times solution sprayed,1.5 × 10^9 cfu/ml
same,average value of viable filamentous fungi counts on all materials examined,Botrytis cinerea; 10 times solution sprayed,2.6 × 10^5 cfu/ml
same,average value of viable filamentous fungi counts on all materials examined,Botrytis cinerea; 50 times solution sprayed,4.6 × 10^5 cfu/ml
same,average value of viable filamentous fungi counts on all materials examined,Pythium ultimum; 10 times solution sprayed,2.8 × 10^4 cfu/ml
same,average value of viable filamentous fungi counts on all materials examined,Pythium ultimum; 50 times solution sprayed,1.7 × 10^4 cfu/ml
same,average value of viable filamentous fungi counts on all materials examined,Fusarium oxysporum; 10 times solution sprayed,3.7 × 10^5 cfu/ml
same,average value of viable filamentous fungi counts on all materials examined,Fusarium oxysporum; 50 times solution sprayed,3.4 × 10^5 cfu/ml
O=C1O[C@H]([C@@H](O)CO)C(O)=C1O [Ascorbic acid],Average value of viable bacteria counts on all materials examined,Burkholderia glumae; 10 times solution sprayed,1.1 × 10^8 cfu/ml
same,Average value of viable bacteria counts on all materials examined,Burkholderia glumae; 50 times solution sprayed,3.2 × 10^8 cfu/ml
same,average value of viable filamentous fungi counts on all materials examined,Pyricularia oryzae; 10 times solution sprayed,4.2 × 10^4 cfu/ml
same,average value of viable filamentous fungi counts on all materials examined,Pyricularia oryzae; 50 times solution sprayed,6.2 × 10^4 cfu/ml
same,Average value of viable bacteria counts on all materials examined,Erwinia chrysanthemi; 10 times solution sprayed,1.0 × 10^8 cfu/ml
same,Average value of viable bacteria counts on all materials examined,Erwinia chrysanthemi; 50 times solution sprayed,1.0 × 10^8 cfu/ml
same,Average value of viable bacteria counts on all materials examined,Burkholderia plantarii; 10 times solution sprayed,1.6 × 10^7 cfu/ml
same,Average value of viable bacteria counts on all materials examined,Burkholderia plantarii; 50 times solution sprayed,1.8 × 10^7 cfu/ml
same,average value of viable filamentous fungi counts on all materials examined,Rhizoctonia solani; 10 times solution sprayed,1.3 × 10^5 cfu/ml
same,average value of viable filamentous fungi counts on all materials examined,Rhizoctonia solani; 50 times solution sprayed,2.0 × 10^5 cfu/ml
same,Average value of viable bacteria counts on all materials examined,Ralstonia solanacearum; 10 times solution sprayed,8.5 × 10^8 cfu/ml
same,Average value of viable bacteria counts on all materials examined,Ralstonia solanacearum; 50 times solution sprayed,1.0 × 10^9 cfu/ml
same,average value of viable filamentous fungi counts on all materials examined,Botrytis cinerea; 10 times solution sprayed,4.5 × 10^5 cfu/ml
same,average value of viable filamentous fungi counts on all materials examined,Botrytis cinerea; 50 times solution sprayed,5.0 × 10^5 cfu/ml
same,average value of viable filamentous fungi counts on all materials examined,Pythium ultimum; 10 times solution sprayed,2.3 × 10^4 cfu/ml
same,average value of viable filamentous fungi counts on all materials examined,Pythium ultimum; 50 times solution sprayed,1.5 × 10^4 cfu/ml
same,average value of viable filamentous fungi counts on all materials examined,Fusarium oxysporum; 10 times solution sprayed,3.2 × 10^5 cfu/ml
same,average value of viable filamentous fungi counts on all materials examined,Fusarium oxysporum; 50 times solution sprayed,4.7 × 10^5 cfu/ml
O=C1C=CC(=O)O1 [Maleic anhydride],sterilization of ring rot pathogens (in words),[1]; 2 to 10 times solutions,complete sterilization
same,sterilization effect on ring rot pathogens (in words),[1]; 25 to 50 times solutions,high sterilization effect
same,sterilization in test using potatoes (in words),[2]; 5 to 10 times solution,complete sterilization
same,sterilization effect in test using potatoes (in words),[2]; 50 times solution,high sterilization effect
same,Average value of viable bacteria counts on all materials examined,Burkholderia glumae; 2 times solution sprayed,0 cfu/ml
same,Average value of viable bacteria counts on all materials examined,Burkholderia glumae; 5 times solution sprayed,0 cfu/ml
same,Average value of viable bacteria counts on all materials examined,Burkholderia glumae; 25 times solution sprayed,0 cfu/ml
same,Average value of viable bacteria counts on all materials examined,Burkholderia glumae; 50 times solution sprayed,0 cfu/ml
same,Average value of viable bacteria counts on all materials examined,Burkholderia glumae; 100 times solution sprayed,0 cfu/ml
same,Average value of viable bacteria counts on all materials examined,Burkholderia glumae; 200 times solution sprayed,69 cfu/ml
same,Average value of viable bacteria counts on all materials examined,Burkholderia glumae; 500 times solution sprayed,2.0 × 10^2 cfu/ml
same,average value of viable filamentous fungi counts on all materials examined,Pyricularia oryzae; 2 times solution sprayed,0 cfu/ml
same,average value of viable filamentous fungi counts on all materials examined,Pyricularia oryzae; 5 times solution sprayed,0 cfu/ml
same,average value of viable filamentous fungi counts on all materials examined,Pyricularia oryzae; 25 times solution sprayed,0 cfu/ml
same,average value of viable filamentous fungi counts on all materials examined,Pyricularia oryzae; 50 times solution sprayed,0 cfu/ml
same,average value of viable filamentous fungi counts on all materials examined,Pyricularia oryzae; 100 times solution sprayed,0 cfu/ml
same,average value of viable filamentous fungi counts on all materials examined,Pyricularia oryzae; 200 times solution sprayed,32 cfu/ml
same,average value of viable filamentous fungi counts on all materials examined,Pyricularia oryzae; 500 times solution sprayed,1.5 × 10^2 cfu/ml
same,sterilization of blackleg pathogens (in words),[3]; 2 to 10 times solutions,complete sterilization
same,sterilization effect on blackleg pathogens (in words),[3]; 25 to 50 times solutions,high sterilization effect
same,Average value of viable bacteria counts on all materials examined,Burkholderia plantarii; 2 times solution sprayed,0 cfu/ml
same,Average value of viable bacteria counts on all materials examined,Burkholderia plantarii; 5 times solution sprayed,0 cfu/ml
same,Average value of viable bacteria counts on all materials examined,Burkholderia plantarii; 25 times solution sprayed,0 cfu/ml
same,Average value of viable bacteria counts on all materials examined,Burkholderia plantarii; 50 times solution sprayed,0 cfu/ml
same,Average value of viable bacteria counts on all materials examined,Burkholderia plantarii; 100 times solution sprayed,0 cfu/ml
same,Average value of viable bacteria counts on all materials examined,Burkholderia plantarii; 200 times solution sprayed,7 cfu/ml
same,Average value of viable bacteria counts on all materials examined,Burkholderia plantarii; 500 times solution sprayed,1.0 × 10^2 cfu/ml
same,Average value of viable bacteria counts on all materials examined,Ralstonia solanacearum; 2 times solution sprayed,0 cfu/ml
same,Average value of viable bacteria counts on all materials examined,Ralstonia solanacearum; 5 times solution sprayed,0 cfu/ml
same,Average value of viable bacteria counts on all materials examined,Ralstonia solanacearum; 25 times solution sprayed,0 cfu/ml
same,Average value of viable bacteria counts on all materials examined,Ralstonia solanacearum; 50 times solution sprayed,0 cfu/ml
same,Average value of viable bacteria counts on all materials examined,Ralstonia solanacearum; 100 times solution sprayed,0 cfu/ml
same,Average value of viable bacteria counts on all materials examined,Ralstonia solanacearum; 200 times solution sprayed,4 cfu/ml
same,Average value of viable bacteria counts on all materials examined,Ralstonia solanacearum; 500 times solution sprayed,58 cfu/ml
same,sterilization in material disinfection test (in words),[4],complete sterilization

# Reference: US20100048696A1, “AGRICULTURAL DISEASE CONTROL AGENT” (Idemitsu Kosan Co., Ltd., priority 2007, published 2010)
